Measured values published in patent US20050048508A1, “Trehalose receptor and method for detecting trehalose with the same” (KABUSHIKI KAISHA HAYASHIBARA SEIBUTSU KAGAKU KENKYUJO, priority 2002, published 2005).

Tests used:
[1] = molecular target: T1, trehalose receptor (G protein α-subunits and T1R3) (Mus musculus, UniProt Q925D8, I706N); test: Quantitation of trehalose using trehalose receptor, 96-well microplate fluorescence assay; format: cell-based; conditions: for Fluorescence intensity (integral value): 0.1 ml/well added to 100 µl cell suspension, ex 494 nm, em 516 nm
T1 construct: expressed in transfected cells; host or cells: 293 cells, RCB 1637 (human embryonic kidney)
T1 sequence (Q925D8 21-858 I706N): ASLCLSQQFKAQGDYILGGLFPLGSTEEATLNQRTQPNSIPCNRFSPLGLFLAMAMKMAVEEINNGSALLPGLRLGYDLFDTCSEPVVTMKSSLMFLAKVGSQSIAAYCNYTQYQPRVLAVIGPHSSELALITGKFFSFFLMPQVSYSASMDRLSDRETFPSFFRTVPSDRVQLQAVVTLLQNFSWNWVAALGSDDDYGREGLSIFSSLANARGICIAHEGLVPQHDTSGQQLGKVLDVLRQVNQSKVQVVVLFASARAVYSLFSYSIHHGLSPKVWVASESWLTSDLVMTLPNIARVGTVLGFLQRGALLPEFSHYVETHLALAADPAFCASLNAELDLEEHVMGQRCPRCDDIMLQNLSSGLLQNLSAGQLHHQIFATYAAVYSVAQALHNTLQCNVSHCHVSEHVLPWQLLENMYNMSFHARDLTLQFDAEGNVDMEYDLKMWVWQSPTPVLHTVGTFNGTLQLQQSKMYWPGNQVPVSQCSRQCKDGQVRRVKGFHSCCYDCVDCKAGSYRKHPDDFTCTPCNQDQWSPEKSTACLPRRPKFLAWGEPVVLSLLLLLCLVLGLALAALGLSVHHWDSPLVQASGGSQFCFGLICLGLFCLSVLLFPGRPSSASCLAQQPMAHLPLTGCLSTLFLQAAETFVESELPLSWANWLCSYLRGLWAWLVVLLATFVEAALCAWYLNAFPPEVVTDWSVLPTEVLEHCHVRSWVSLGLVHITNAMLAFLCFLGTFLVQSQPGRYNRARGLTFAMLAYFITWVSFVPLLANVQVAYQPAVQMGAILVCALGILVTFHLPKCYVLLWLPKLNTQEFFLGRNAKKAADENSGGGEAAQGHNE
Protocol: The captioned reactivity test was conducted according to a conventional intracellular calcium ion assay: 293 Cells prepared in Example 3, capable of coexpressing the G protein α-subunits and the sweet taste receptor(s), were cultured in a plastic petri dish for cell culture until reaching its confluent phase. Thereafter, the cells were detached from the inner surface of the petri dish with a 0.05% (v/v) trypsin solution and a 0.53 mM EDTA solution, suspended in D-MEM supplemented with 10% (v/v) fetal calf serum to give a cell density of 1×10^6 cells/ml, and allowed to intake “FLUO-4. AM”, a reagent for detecting intracellular calcium ion commercialized by Molecular Probes Inc., Ore., USA, by adding to the cell suspension to give a final concentration of 2 μM and incubating the cells at 37 ° C. for 30 to 90 min. The resulting cells were washed with a buffer for detecting calcium ion, which contained 10 mM HEPES (pH 7.4), 130 mM sodium chloride, 5.4 mM potassium chloride, 2 mM calcium chloride, 1 mM magnesium chloride, 5.5 mM D-glucose, 0.1% (v/v) calf serum albumin, and 1 mM sodium pyruvate to remove the reagent remained extracellularly; suspended in a fresh preparation of the same buffer to give a cell density of 2.67 ×10^7 cells/ml; filtered with a membrane with a pore size of 100 μm mesh; and allowed to stand at 25° C. for 30 min. Two milliliters of the resultant cell suspension was injected into a glass cuvette, commercialized by Hitachi, Ltd., Tokyo, Japan, and analyzed on “HITACHI 650-40”, a fluorescence spectrophotometer commercialized by Hitachi, Ltd., Tokyo, Japan.
One hundred microliter aliquots of the cell suspension in Example 4 were placed in commercially available 96-well microplates, followed by placing 0.1 ml/well of any of trehalose solutions with different concentrations of 1, 2, 5, 10, 20, 50, 100, 200, 500, 1,000, and 2,000 mM, prepared with trehalose and the same buffer for calcium ion assay as used in Example 4; and assayed on “FLUOROSCAN ASCENT W/DF”, an automatic fluorescence spectrophotometer for multi-plates, Dainippon Pharmaceutical Co., Ltd., Tokyo, Japan, at an excitation wavelength of 494 nm and a fluorescence wavelength of 516 nm, followed by calculating the integral values for the detected fluorescence intensities.

[2] = relative to sucrose; cited from earlier work

What does the source list for `OC[C@H]1O[C@H](O[C@H]2O[C@H](CO)[C@@H](O)[C@H](O)[C@H]2O)[C@H](O)[C@@H](O)[C@@H]1O` [Trehalose]?
Concentration at which trehalose is detectable ([1]; trehalose receptor cells, fluorescence assay of Table 5): ≥ 5 mM; Fluorescence intensity (integral value) ([1]; trehalose solution 1 mM): 0.2; Fluorescence intensity (integral value) ([1]; trehalose solution 2 mM): 0.5; Fluorescence intensity (integral value) ([1]; trehalose solution 5 mM): 10; Fluorescence intensity (integral value) ([1]; trehalose solution 10 mM): 19; Fluorescence intensity (integral value) ([1]; trehalose solution 20 mM): 29; Fluorescence intensity (integral value) ([1]; trehalose solution 50 mM): 45; Fluorescence intensity (integral value) ([1]; trehalose solution 100 mM): 82; Fluorescence intensity (integral value) ([1]; trehalose solution 200 mM): 159; Fluorescence intensity (integral value) ([1]; trehalose solution 500 mM): 421; Fluorescence intensity (integral value) ([1]; trehalose solution 1,000 mM): 670; Fluorescence intensity (integral value) ([1]; trehalose solution 2,000 mM): 720; Sweetening power [2]: 45%
